Experiments:
Experiment in all cases: relative viability (nuclei count vs DMSO), 5 days (fraction); higher = more cells survive
Hydroxychloroquine = compound: CCN(CCO)CCCC(C)Nc1ccnc2cc(Cl)ccc12 [Hydroxychloroquine]
Method in brief: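 Viability here means nuclei in treated wells divided by nuclei in vehicle wells, reported as the median across plates. Only plates with control CV below 25% and at least one doubling passed. Lung cancer cell lines in 1536-well plates were exposed to five √10-spaced library-drug doses for 5 days and counted from 4× Hoechst images in MetaXpress.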

[1] = compound: CCN(CCO)CCCC(C)Nc1ccnc2cc(Cl)ccc12 [Hydroxychloroquine] + CC(=O)c1c(C)c2cnc(Nc3ccc(N4CCNCC4)cn3)nc2n(C2CCCC2)c1=O [Palbociclib] (partner 0.5 µM)
Method in brief: (§1)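 One day after seeding in 1536-well plates, lung cancer cell lines were dosed by pin tool. Dosing was either single-drug or a fixed anchor-drug dose plus five library-drug doses (not always all listed) in √10 steps. After 5 days, nuclei were stained in one fix-and-stain step and counted on 4× images, and relative viability is the nuclei count of treated wells over that of vehicle wells, given as the median of duplicate plates.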

[2] = compound: CCN(CCO)CCCC(C)Nc1ccnc2cc(Cl)ccc12 [Hydroxychloroquine] + COc1cc2c(Oc3ccc(NC(=O)C4(C(=O)Nc5ccc(F)cc5)CC4)cc3F)ccnc2cc1OCCCN1CCOCC1 [Foretinib] (partner 0.25 µM)
Method in brief: as §1

[3] = compound: CCN(CCO)CCCC(C)Nc1ccnc2cc(Cl)ccc12 [Hydroxychloroquine] + COc1cccc2cc(-c3nc([C@H]4CC[C@H](C(=O)O)CC4)n4ncnc(N)c34)[nH]c12 [OSI-027] (partner 0.5 µM)
Method in brief: as §1

Cell Line	relative viability (Hydroxychloroquine; 0.5 µM)	relative viability (Hydroxychloroquine; 1.581 µM)	relative viability (Hydroxychloroquine; 5 µM)	relative viability (Hydroxychloroquine; 15.81 µM)	relative viability (Hydroxychloroquine; 50 µM)	relative viability ([1]; first compound 0.5 µM)	relative viability ([1]; first compound 1.581 µM)	relative viability ([1]; first compound 5 µM)	relative viability ([1]; first compound 15.81 µM)	relative viability ([1]; first compound 50 µM)	relative viability ([2]; first compound 0.5 µM)	relative viability ([2]; first compound 1.581 µM)	relative viability ([2]; first compound 5 µM)	relative viability ([2]; first compound 15.81 µM)	relative viability ([2]; first compound 50 µM)	relative viability ([3]; first compound 0.5 µM)	relative viability ([3]; first compound 1.581 µM)	relative viability ([3]; first compound 5 µM)	relative viability ([3]; first compound 15.81 µM)	relative viability ([3]; first compound 50 µM)
NCI-H1734	0.918	0.869	0.989	0.942	1.02	0.316	0.296	0.37	0.305	0.362	0.893	0.864	0.864	0.784	0.866	0.555	0.526	0.581	0.606	0.677
NCI-H1755	1.05	0.899	0.928	0.99	0.941	0.459	0.398	0.445	0.443	0.475	0.906	0.797	0.854	0.922	0.842	0.797	0.617	0.628	0.649	0.574
NCI-H1793	1.03	0.791	0.916	0.866	0.998	0.331	0.311	0.372	0.325	0.312	0.821	0.618	0.624	0.661	0.534	0.334	0.226	0.226	0.234	0.262
NCI-H1915	0.961	1.01	0.981	1.01	1.06	0.532	0.495	0.559	0.568	0.542	1.07	1.11	1.15	1.1	1.12	0.648	0.53	0.599	0.583	0.685
NCI-H1944	0.983	0.966	0.925	0.919	0.994	0.301	0.314	0.319	0.29	0.346	0.951	0.936	0.775	0.89	0.785	0.445	0.33	0.418	0.337	0.453
NCI-H1975	0.973	0.977	0.91	1	1.06	0.47	0.53	0.603	0.615	0.789	0.942	0.866	0.988	1.05	0.97	0.846	0.74	0.711	0.868	0.991
NCI-H1993	0.974	0.842	0.939	0.883	1.02	0.6	0.575	0.692	0.662	0.693	0.867	0.711	0.735	0.887	0.79	0.546	0.563	0.558	0.555	0.541
NCI-H2009	0.979	1.04	1.06	0.994	1.07	0.195	0.209	0.212	0.237	0.197	1.19	1.21	1.24	1.16	1.18	0.632	0.616	0.651	0.658	0.644
NCI-H2023	1	1.03	0.941	0.981	1.13	0.376	0.431	0.349	0.396	0.386	0.806	0.739	0.749	0.779	0.776	0.468	0.336	0.402	0.338	0.442
NCI-H2085	1	0.859	0.964	0.977	0.989	0.473	0.422	0.48	0.484	0.455	1.09	1.02	0.932	0.931	0.98	0.788	0.557	0.625	0.693	0.821
NCI-H2087	0.971	0.923	1	1.06	0.98	0.189	0.227	0.231	0.189	0.213	1.21	1.21	1.18	1.11	0.972	0.584	0.375	0.529	0.672	0.78
NCI-H2126	1.02	0.967	0.974	0.992	1.06	0.34	0.341	0.34	0.333	0.379	1.21	1.11	1.33	1.08	1.1	0.625	0.631	0.763	0.606	0.702
NCI-H2170	0.969	1.15	0.992	0.995	1.15	0.379	0.401	0.415	0.4	0.421	1.04	1.04	0.973	1.01	1.1	0.63	0.776	0.685	0.702	0.806
NCI-H2228	1.05	0.959	0.945	1.11	1.08	0.322	0.871	0.857	0.706	0.873	0.809	0.862	0.839	0.969	0.834	0.617	0.569	0.634	0.548	0.669
NCI-H2342	0.986	0.897	0.987	0.991	1.13	0.565	0.514	0.507	0.487	0.514	0.917	0.995	1.05	1.01	1.1	0.585	0.578	0.613	0.68	0.69
NCI-H2347	1.1	0.935	1.04	0.965	1.03	0.457	0.418	0.414	0.515	0.383	0.936	0.663	0.885		0.683	0.528	0.356	0.387	0.322	0.336
